Experimental data published in patent US20070009571A1, “Novel haptotactic peptides” (Hadasit Medical Research Services & Development Ltd., priority 1998, published 2007).
Entries after “also recorded” stand apart in the source; their conditions may differ. No end group written: not given here.

B1: γ chain: isolated γ chain of fibrinogen (protein, UniProt P02679 27-453, looked up)
Fibrinogen gamma chain: YVATRDNCCILDERFGSYCPTTCGIADFLSTYQTKVDKDLQSLEDILHQVENKTSEVKQLIKAIQLTYNPDESSKPNMIDAATLKSRKMLEEIMKYEASILTHDSSIRYLQEIYNSNNQKIVNLKEKVAQLEAQCQEPCKDTVQIHDITGKDCQDIANKGAKQSGLYFIKPLKANQQFLVYCEIDGSGNGWTVFQKRLDGSVDFKKNWIQYKEGFGHLSPTGTTEFWLGNEKIHLISTQSAIPYALRVELEDWNGRTSTADYAMFKVGPEADKYRLTYAYFAGGDAGDAFDGFDFGDDPSDKFFTSHNGMQFSTWDNDNDKFEGNCAEQDGSGWWMNKCHAGHLNGVYYQGGTYSKASTPNGYDNGIIWATWKTRWYSMKKTTMKIIPFNRLTIGEGQQHHLGGAKQVRPEHPAETEYDSLYPEDDL
modifications: Fibrinogen gamma chain
notes: isolated γ chain of fibrinogen

Experiments:
[1] = tested on: bovine aortic endothelial cells (EC, BAEC); experiment: Haptotaxis assay: attachment of ligand-coated SB to cultured cells; assay type: cell-based; settings: for % Binding of peptide-coated SB to normal cultured cells: percentage of SB-ligand attached to cells by day 4
Procedure: (§1) Peptides or fibrinogen were covalently bound to CNBr activated sepharose beads (SB) (Pharmacia, Piscataway, N.J.) using techniques previously used to bind albumin, fibrinogen and thrombin. Briefly, CNBr-activated sepharose 4B (Pharmacia) was washed with 1N HCl, and suspended in the coupling buffer (pH 8.3), following the protocol supplied by the manufacturer. The peptides were dialyzed against the coupling buffer to remove Tris. Peptides (1 mg) were not highly water soluble. The peptides were dissolved in 1 mL 70% ethanol or dimethylformamide, and were then mixed into the coupling buffer containing 1 mL CNBr-activated sepharose. The suspension was gently agitated overnight, then centrifuged 500×g to pack the beads. This procedure covalently binds more than 95% of proteins or peptides including fibrinogen or peptides-CαE (SEQ ID NO:3), Cβ (SEQ ID NO:1) and preCγ (SEQ ID NO:2) to the beads determined by Abs280 readings of the solutions.
(§2) The migratory/adhesion response of cells to proteins (such as fibrinogen) or peptides covalently bound to SB was measured as follows. Cells were grown in 6 or 12 well plates to near confluence or in suspension until they covered about ½ to ⅔ of the plate surface. At that point, about […] of a suspension containing 50% v/v SB coated with the test protein or peptide were added to the plate and dispersed by gentle shaking for 1 min. The plate was then returned to the incubator and examined at different times by inverted phase microscopy.
(§3) The SB (naked or ligand bound) sedimented onto the nearly confluent cell layer and occasionally made physical contact with cell membranes on the plate (ascribed to Brownian motion or micro-convection currents). […] Typically, 300 beads (but not less then 200) were counted in each well and the ratio of SB bound to the cells relative to total number SB could be calculated (SB bound/SB total). Counting the percentage of SB attached to the cell surface at different time intervals provided a quantitative assay of the kinetics of the attachment of coated beads to cells. Negative control with uncoated SB or positive controls with SB-fibrinogen were employed with at least 3 wells measured for each. The statistical error was calculated from the square root of the total counts.
(§4) The peptides of the present invention were synthesized and tested in cell culture systems as described above. Essentially, peptides were covalently attached to sepharose beads to form SB-Cα (SEQ ID NO:4), SB-Cβ (SEQ ID NO:1), SB-PreCγ (SEQ ID NO:2), SB-Cγ (SEQ ID NO:5) and SB-CαE (SEQ ID NO:3), respectively, as was fibrinogen to form SB-Fib. The SB-peptide combination was then incubated with cultured cells. […] The haptotactic potency of the peptides is summarized in Table 3 with the percentage of SB-Fib/peptide attached to cells (by day 4) given in columns 2-5 of Table 3.

tested cell lines = experiment: Haptotaxis assay, statements over the tested cell lines; assay type: cell-based; settings: ligands covalently bound to SB; for haptotactic response / cell binding to SB-ligand, in words: near confluent cell cultures
Procedure: as §1, §2, §3, §4

HF [2] = experiment: Cell proliferation, MTS assay; assay type: cell-based, human; settings: 0.4 nM-4 μM, 96 well plates
Procedure: Cell proliferation was evaluated by measuring cell density as a function of time by two different colorimetric assays. The MTS colorimetric assay (CellTitre 96 Aqueous Assay by Promega) is based on dehydrogenase conversion of MTS (methyl tetrazolium salt) by viable cells to […] (Ge M. Tang, G., Ryan. T. J. and Malik. A. B., “Fibrinogen degradation product fragment D induces endothelial cell detachment by activation of cell-mediated fibrinolysis”, J. Clin. Inves., 90:2508-2516 (1992)); the methylene blue (MB) assay is based on the staining of monolayer cells after their fixation, and reading the absorbence of the absorbed dye.
The MTS assay for viable cells was performed as follows: 30 μL of freshly prepared MTS/PMS were added to each well; following 2 hrs incubation at 37° C., the plates were placed on a computer driven microplate reader (Anthos HT-II, Salzburg, Austria), programmed to shake the plate for 1 minute before reading the optical density (OD) of the dye at 490 nm. The measurements were repeated following 4 and 6 hours of incubation.
Peptides (Cα (SEQ ID NO:4), […], PreCγ (SEQ ID NO:2) and CαE (SEQ ID NO:3)), up to 1 μg/mL or 100 μg/mL fibrinogen or thrombin (final concentrations) were added to the culture medium and cell numbers were assayed by day 3 using the MTS assay. The change in cell number was compared with that observed versus saline control. Of the 5 peptides tested at dosages up to 10 μg/mL (approximately equimolar to 1 μg/mL fibrinogen), none of the peptides exerted significant effect on cell proliferation (FIG. 7).

EC cells (BAEC) = experiment: FACS analysis of binding of FITC-labeled peptides; assay type: cell-based, bovine; settings: 10 μg/ml or 100 μg/ml, medium with 0.1% albumin
Procedure: (§5) EC and HF cell monolayers were washed and then incubated with trypsin-versene. Cells were then washed with growth medium and resuspended in medium with 0.1% albumin. FITC-labeled peptide-Cβ (SEQ ID NO:1) was incubated with 5×10^5 EC cells (10 μg/ml or 100 μg/ml) or with 2.5×10^5 HF cells (100 μg/ml) in medium with 0.1% albumin. FITC-labeled peptide-CαE (SEQ ID NO:3) and Cα (SEQ ID NO:4) (10 μg/ml) was incubated with 5×10^5 EC cells in medium with 0.1% albumin. Cells were then washed with PBS and 1% albumin. Cells were resuspended in PBS and 1% albumin and then filtered through a mesh for FACS analysis, in which the FITC tluorescence was measured for each cell.
(§6) The control is without FITC-labeled peptide (background fluorescence).
(§7) In competition experiments, cells were incubated with various concentrations of unlabeled Cβ (SEQ ID NO:1) for 15 mins, an aliquot of Cβ^FITC (4 mM) was added and the sample was subjected to FACS analysis. […] The Cβ^FITC (SEQ ID NO:1) uptake experiments best fitted a linear-quadratic curve-fit.

HF cells = experiment: FACS analysis of binding of FITC-labeled peptides; assay type: cell-based, human; settings: 100 μg/ml, medium with 0.1% albumin
Procedure: as §5, §6, §7

cells such as HF or BAEC = experiment: FACS competition and uptake experiments with Cβ-FITC; assay type: cell-based; design: dose or concentration left out as unconfirmed; settings: preincubation with unlabeled Cβ for 15 mins
Procedure: as §7

BAEC = experiment: Chemotaxis, micro-Boyden chamber assay; assay type: cell-based, bovine; settings: up to 40 μg/ml
Procedure: (§8) Chemotaxis was evaluated using 48-well plastic Microtaxis micro-Boyden chambers. Polycarbonate filters with pore size of 8 μm were coated with fibronectin for 2 hours at 37° C. Conditioned medium from 3T3 cells served as a positive control. Test solution (26 μl) containing the tested peptides or protein or medium with no additions that served as control were placed in the lower chamber, covered with the filter. 50 μl cell suspension was introduced to the upper chamber of each well. The number of cells/well varied in the range of 5,000-10,000 in different experiments. The device loaded with cells was incubated at 37° C. for 4-5 hours. The filter was then removed and the non-migrating cells on its upper part were carefully wiped off with a damp cotton swab. The filter was fixed in methanol and stained with Accustain (modified Wright stain solution Sigma Diagnostics: St. Lois, Mo.). Cells that crossed or were retained within the filter were counted microscopically at low magnification so that the viewing field corresponded to the whole area of each well. Each experimental variant was performed in duplicated or triplicates and the data from, three successful experiments were normalized to the values of the positive control and averaged.
The chemotactic response of BAEC to a soluble gradient of […], the most haptotactic of the peptides studied was as follows. The results can be seen in FIG. 6. […] A similar, though more moderate, chemotaxis response to Cβ (SEQ ID NO:1) was obtained with HF.

HF [3] = experiment: Chemotaxis, micro-Boyden chamber assay; assay type: cell-based, human; settings: compared with BAEC
Procedure: as §8
The chemotactic response of BAEC to a soluble gradient of Cα (SEQ ID NO:1), the most haptotactic of the peptides studied was as follows. […]

[4] = tested on: normal human skin fibroblasts (HF); experiment: Haptotaxis assay: attachment of ligand-coated sepharose beads (SB) to cultured cells; assay type: cell-based; settings: for % Binding of peptide-coated SB to normal cultured cells: percentage of SB-ligand attached to cells by day 4
Procedure: as §1, §2, §3, §4

[5] = tested on: human ovarian carcinoma cells (OV-1063); experiment: Haptotaxis assay: attachment of ligand-coated SB to cultured cells; assay type: cell-based; settings: percentage of SB-ligand attached to cells by day 4
Procedure: as §1, §2, §3, §4

[6] = tested on: murine mammary adenocarcinoma cells (EMT-6); experiment: as above; assay type: cell-based; settings: for % Binding of peptide-coated SB to normal cultured cells: percentage of SB-ligand attached to cells by day 4
Procedure: as §1, §2, §3, §4

[7] = tested on: normal human keratinocytes; experiment: as above; assay type: cell-based; settings: Keratinocyte; percentage of SB-ligand attached to cells by day 4
Procedure: as §1, §2, §3, §4

[8] = tested on: normal murine fibroblasts (MF); experiment: as above; assay type: cell-based; settings: for % Binding of peptide-coated SB to normal cultured cells: percentage of SB-ligand attached to cells by day 4
Procedure: as §1, §2, §3, §4

[9] = tested on: porcine smooth muscle cells (SMC); experiment: as above; assay type: cell-based; settings: for % Binding of peptide-coated SB to normal cultured cells: percentage of SB-ligand attached to cells by day 4
Procedure: as §1, §2, §3, §4

human fibroblasts = settings: isolated constituent chains of fibrinogen; Gray et al. 1993; cited from earlier work

Molecule	cell binding / haptotactic response to SB-ligand, in words [1]	haptotactic response / cell binding to SB-ligand, in words (tested cell lines)	% Binding of peptide-coated SB to normal cultured cells [4] [%]	% Binding of peptide-coated SB to normal cultured cells [1] [%]	% Binding of peptide-coated SB to normal cultured cells [5] [%]	% Binding of peptide-coated SB to normal cultured cells [6] [%]	% Binding of peptide-coated SB to normal cultured cells [7] [%]	% Binding of peptide-coated SB to normal cultured cells [8] [%]	% Binding of peptide-coated SB to normal cultured cells [9] [%]	cell lines excepted from binding to SB-ligand (all other tested lines bound) (tested cell lines)	number of cell lines bound by SB-ligand out of 7 tested (tested cell lines)	further results
KGSWYSMRKMSMKIRPFFPQQ (Equivalent to the c-terminus of fibrinogen beta-chain) [Cβ, haptotactic peptide homologous to the carboxy terminus of the fibrinogen β chain, β 441-461]	greatest haptotactic response	highly haptotactic; also recorded: significant haptotactic responses										proliferative response of HF (MTS proliferation assay) (HF [2]): none of these peptides stimulated or inhibited proliferation; binding/uptake of FITC-labeled peptide by FACS, in words (EC cells (BAEC)): higher than that of CαE; also recorded: clearly bound to cells; binding/uptake of FITC-labeled peptide by FACS, in words (HF cells): higher than that of CαE; effect of unlabeled peptide on uptake of Cβ-FITC (competition) (cells such as HF or BAEC): increased the level of total Cβ; chemotactic response relative to negative control of 1% BSA serum-free medium (BAEC; BAEC): 3 times; chemotactic response of BAEC, in words (BAEC; soluble gradient, conditioned medium = 100% chemotaxis): highly significant chemotaxis; chemotaxis response of HF, in words (HF [3]): more moderate
SB-CαE: peptide-CαE (SEQ ID NO:3) covalently attached to sepharose beads (RGADYSLRAVRMKIRPLVTQ; also: attached to sepharose beads)	strong binding	next most potent	52	43	0	64	0	61	8	with the exception of OV-1063, keratinocytes and cells derived from a leucocytic lineage	5	cell binding to SB-ligand, in words [4]: strong binding; cell binding to SB-ligand, in words [6]: strong binding; cell binding to SB-ligand, in words [8]: strong binding; cell binding to SB-ligand, in words [9]: Weak attachment
SB-Cα: peptide-Cα (SEQ ID NO:4) covalently attached to sepharose beads (EADHEGTHSTKRGHAKSRP; also: attached to sepharose beads) [reference compound]		No cell binding	0	0	0	1	0	0	0		none	
SB-Cβ: peptide-Cβ (SEQ ID NO:1) covalently attached to sepharose beads (KGSWYSMRKMSMKIRPFFPQQ; also: attached to sepharose beads)		most potent	100	94	4	99	0	89	100	with the exception of OV-1063, keratinocytes and cells derived from a leucocytic lineage	5	
B1												stimulation of fibroblast proliferation above controls (human fibroblasts): no effect
